Consider 24 compounds from patent publication US12492181B2, “Gem-disubstituted piperidine melanocortin subtype-2 receptor (MC2R) antagonists and uses thereof” (Crinetics Pharmaceuticals, Inc., priority 2019, dated 2025).

pKi: −log10 of the molar value. Where only a bound is given, the exact number is not on record here.

This assay deals with T1, hMC2 receptor (crude hMC2R membranes from CRE-bla-CHO-K1 cells stably expressing hMC2 receptor and hMRAP accessory protein) (Homo sapiens, UniProt Q01718).
T1 construct: crude membrane fractions
T1 sequence (Q01718 whole entry): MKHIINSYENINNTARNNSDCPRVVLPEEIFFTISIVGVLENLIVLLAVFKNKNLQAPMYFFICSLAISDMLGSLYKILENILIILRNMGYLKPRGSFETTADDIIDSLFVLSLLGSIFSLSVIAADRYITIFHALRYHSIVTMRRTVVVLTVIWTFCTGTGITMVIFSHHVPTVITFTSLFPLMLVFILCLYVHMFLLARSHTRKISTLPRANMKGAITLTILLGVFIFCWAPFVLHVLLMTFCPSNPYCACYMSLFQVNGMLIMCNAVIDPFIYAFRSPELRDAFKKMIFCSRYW
T1 sequence (Q8TCY5 whole entry partner): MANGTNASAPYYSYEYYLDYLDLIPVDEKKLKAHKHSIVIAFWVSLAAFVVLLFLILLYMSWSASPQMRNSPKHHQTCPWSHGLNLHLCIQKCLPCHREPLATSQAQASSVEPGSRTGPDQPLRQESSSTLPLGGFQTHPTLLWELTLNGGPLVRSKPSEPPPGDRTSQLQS
Kind of assay: hMC2 membrane binding assay ([125I]ACTH (1-39) Tyr23, SPA). The settings on record: displacement of 0.2 nM [125I]ACTH (1-39) Tyr23 from hMC2R membranes, 1.5 hours at room temperature; read-out: MC2R binding potency. The protocol: Crude membrane fractions are prepared from CRE-bla-CHO-K1 cells stably expressing hMC2 receptor and hMRAP accessory protein (Thermo Fisher). The cells are grown to 85-100% confluence on standard tissue culture dishes in GlutaMax DMEM growth media (Gibco) with following additives: 10% dialyzed FBS (Gemini), 0.1 mM NEAA (Gibco), 25 mM HEPES (Gibco), 5 μg/mL blasticidin (Goldbio), 100 μg/mL zeocin (Invitrogen), 600 μg/mL hygromycin (Goldbio). To prepare membranes, cells are scraped and collected in 1× Dulbecco's phosphate buffered saline (Corning) and then pelleted at 1000 RPM's. The cell pellet is reconstituted in membrane preparation buffer (20 mM HEPES, 6 mM MgCl2 and 1 mM EGTA, protease inhibitor tablets (Pierce) adjusted to pH 7.4), homogenized using a dounce homogenizer, and the resulting membrane fraction is pelleted by centrifugation at 12,000 RPM's. The membrane pellet is resuspended in membrane preparation buffer, snap freezed and stored at −80° C. for later use.
Binding Assay for hMC2 Antagonists Protocol:
The hMC2 membrane binding assay utilizes the following components: radiolabel [^125I]ACTH (1-39) Tyr23 (PerkinElmer), wheatgerm agglutinin coated PVT SPA beads (PerkinElmer), crude hMC2R membranes, and compounds. Briefly hMC2R membranes are incubated with SPA beads in binding assay buffer (50 mM HEPES, 5 mM MgCl2, 1 mM CaCl2), 0.20% BSA, protease inhibitor tablets (Pierce) adjusted to pH7.4) prior to assay initiation. […] Assay plates are read using a Top Count NXT and Ki values for compounds are determined using a GraphPad Prism 6 non-linear regression analysis.
As for `CCOc1ncccc1-c1ccc(C2(NC(=O)CCN(C)C)CCN(c3ccc(C(F)(F)F)cc3C#N)CC2)cn1` [Compound 2-10, N-{1-[2-cyano-4-(trifluoromethyl)phenyl]-4-{2′-ethoxy-[2,3′-bipyridin]-5-yl}piperidin-4-yl}-3-(dimethylamino)propanamide], the pKi is > 8.00.
The result for `CCOc1ncccc1-c1ccc(C2(C(=O)N[C@@H]3CCN(C)C3)CCN(c3ccc(C(F)(F)F)cc3C#N)CC2)cn1` [Compound 1-9, 1-[2-cyano-4-(trifluoromethyl)phenyl]-4-{2′-ethoxy-[2,3′-bipyridin]-5-yl}-N-[(3R)-1-methylpyrrolidin-3-yl]piperidine-4-carboxamide] reads > 8.00; that for `CCOc1ncccc1-c1ccc(C2(C(=O)NCCN)CCN(c3ccc(C(F)(F)F)cc3C#N)CC2)cn1` [Compound 1-13, N-(2-aminoethyl)-1-[2-cyano-4-(trifluoromethyl)phenyl]-4-{2′-ethoxy-[2,3′-bipyridin]-5-yl}piperidine-4-carboxamide], > 8.00; that for `CCOc1ncccc1-c1ccc(C2(NCCO)CCN(c3ccc(C(F)(F)F)cc3C#N)CC2)cn1` [Compound 2-14, 2-(4-{2′-ethoxy-[2,3′-bipyridin]-5-yl}-4-[(2-hydroxyethyl)amino]piperidin-1-yl)-5-(trifluoromethyl)benzonitrile], 7.00 to 8.00.
The result for `CCOc1ncccc1-c1ccc(C2(C(=O)N[C@@H]3CCNC3)CCN(c3ccc(C(F)(F)F)cc3C#N)CC2)nc1` [Compound 1-21, 1-[2-cyano-4-(trifluoromethyl)phenyl]-4-{2′-ethoxy-[3,3′-bipyridin]-6-yl}-N-[(3R)-pyrrolidin-3-yl]piperidine-4-carboxamide] reads > 8.00; that for `CCn1cccc1-c1ccc(C2(C(=O)N[C@H]3CCN(C)C3)CCN(c3ccc(C(F)(F)F)cc3C#N)CC2)cn1` [Compound 1-208, 1-[2-cyano-4-(trifluoromethyl)phenyl]-4-[6-(1-ethyl-1H-pyrrol-2-yl)pyridine-3-yl]-N-[(3S)-1-methylpyrrolidin-3-yl]piperidine-4-carboxamide], > 8.00.
On to `CN1CC[C@H](NC(=O)C2(c3ccc(-c4ccccn4)nc3)CCN(c3ccc(C(F)(F)F)cc3C#N)CC2)C1` [Compound 1-176, 4-{[2,2′-bipyridin]-5-yl}-1-[2-cyano-4-(trifluoromethyl)phenyl]-N-[(3S)-1-methylpyrrolidin-3-yl]piperidine-4-carboxamide], for which the pKi is 7.00 to 8.00.
The result for `Cn1cccc1-c1ccc(C2(C(=O)N[C@H]3C[C@H](N(C)C)C3)CCN(c3ccc(C(F)(F)F)cc3C#N)CC2)cn1` [Compound 1-240, 1-[2-cyano-4-(trifluoromethyl)phenyl]-4-[6-(1-methyl-1H-pyrrol-2-yl)pyridin-3-yl]-N-[(1R,3R)-3-(dimethylamino)cyclobutyl]piperidine-4-carboxamide] reads 7.00 to 8.00.
The result for `CCOc1ncccc1-c1ccc(C2(C(=O)N[C@H]3CCN(C)C3)CCN(c3ccccc3C#N)CC2)cn1` [Compound 1-32, 1-(2-cyanophenyl)-4-{2′-ethoxy-[2,3′-bipyridin]-5-yl}-N-[(3S)-1-methylpyrrolidin-3-yl]piperidine-4-carboxamide] reads 7.00 to 8.00.
The figure for `CCOc1ccccc1-c1ccc(C2(C(=O)N[C@H]3CCN(C)C3)CCN(c3ccc(Cl)cc3C#N)CC2)cn1` [Compound 1-90, 1-(4-chloro-2-cyanophenyl)-4-[6-(2-ethoxyphenyl)pyridin-3-yl]-N-[(3S)-1-methylpyrrolidin-3-yl]piperidine-4-carboxamide] is > 8.00.
Take `CCOc1ncccc1-c1ccc(C2(C(=O)NCCN(C)C)CCN(c3ccc(C(F)(F)F)cc3C#N)CC2)nn1` [Compound 1-331, 1-[2-cyano-4-(trifluoromethyl)phenyl]-N-[2-(dimethylamino)ethyl]-4-[6-(2-ethoxypyridin-3-yl)pyridazin-3-yl]piperidine-4-carboxamide]: the pKi is > 8.00.
The result for `COc1ccc(F)cc1-c1ccc(C2(C(=O)N[C@H]3CCN(C)C3)CCN(c3ccc(C(F)(F)F)cc3Cl)CC2)cn1` [Compound 1-155, 1-[2-chloro-4-(trifluoromethyl)phenyl]-4-[6-(5-fluoro-2-methoxyphenyl)pyridin-3-yl]-N-[(3S)-1-methylpyrrolidin-3-yl]piperidine-4-carboxamide] reads > 8.00; that for `COc1cccnc1-c1ccc(C2(C(=O)N[C@H]3CCN(C)C3)CCN(c3ccc(C(F)(F)F)cc3C#N)CC2)cn1` [Compound 1-178, 1-[2-cyano-4-(trifluoromethyl)phenyl]-4-{3′-methoxy-[2,2′-bipyridin]-5-yl}-N-[(3S)-1-methylpyrrolidin-3-yl]piperidine-4-carboxamide], 7.00 to 8.00.
The result for `CCOc1ncccc1-c1ncc(C2(C(=O)NCCNC)CCN(c3ccc(C(F)(F)F)cc3F)CC2)cc1F` [Compound 1-287, 4-{2′-ethoxy-3-fluoro-[2,3′-bipyridin]-5-yl}-1-[2-fluoro-4-(trifluoromethyl)phenyl]-N-[2-(methylamino)ethyl]piperidine-4-carboxamide] reads > 8.00; that for `Cn1cccc1-c1ccc(C2(C(=O)NC34CCN(CC3)C4)CCN(c3ccc(C(F)(F)F)cc3C#N)CC2)cn1` [Compound 1-221, N-{1-azabicyclo[2.2.1]heptan-4-yl}-1-[2-cyano-4-(trifluoromethyl)phenyl]-4-[6-(1-methyl-1H-pyrrol-2-yl)pyridin-3-yl]piperidine-4-carboxamide], 7.00 to 8.00.
For the compound `CCOc1ncccc1-c1ccc(C2(C(=O)N[C@@H]3CCN(C)C3)CCN(c3c(Cl)cc(C(F)(F)F)cc3C#N)CC2)cc1` [Compound 1-29, 1-[2-chloro-6-cyano-4-(trifluoromethyl)phenyl]-4-[4-(2-ethoxypyridin-3-yl)phenyl]-N-[(3R)-1-methylpyrrolidin-3-yl]piperidine-4-carboxamide], the pKi is 7.00 to 8.00.
The figure for `COc1ccccc1-c1ccc(C2(C(=O)NC[C@@H]3COCCN3C)CCN(c3ccc(C(F)(F)F)cc3C#N)CC2)cn1` [Compound 1-329, 1-[2-cyano-4-(trifluoromethyl)phenyl]-4-[6-(2-methoxyphenyl)pyridin-3-yl]-N-{[(3R)-4-methylmorpholin-3-yl]methyl}piperidine-4-carboxamide] is > 8.00; for `COc1ccccc1-c1ccc(C2(NC(=O)NCCN(C)C)CCN(c3ccc(C(F)(F)F)cc3C#N)CC2)cn1` [Compound 2-58, 1-{1-[2-cyano-4-(trifluoromethyl)phenyl]-4-[6-(2-methoxyphenyl)pyridin-3-yl]piperidin-4-yl}-3-[2-(dimethylamino)ethyl]urea] it is > 8.00; for `CNCCNC(=O)C1(c2cnc(-c3cccnc3OC)c(F)c2)CCN(c2ccc(C(F)(F)F)cc2Cl)CC1` [Compound 1-303, 1-[2-chloro-4-(trifluoromethyl)phenyl]-4-{3-fluoro-2′-methoxy-[2,3′-bipyridin]-5-yl}-N-[2-(methylamino)ethyl]piperidine-4-carboxamide] it is > 8.00.
`CN1CC[C@H](NC(=O)C2(c3ccc(-c4cccn4C)nc3)CCN(c3ccc(C(F)(F)F)cc3Cl)CC2)C1` [Compound 1-160, 1-[2-chloro-4-(trifluoromethyl)phenyl]-4-[6-(1-methyl-1H-pyrrol-2-yl)pyridin-3-yl]-N-[(3S)-1-methylpyrrolidin-3-yl]piperidine-4-carboxamide]: the pKi is > 8.00.
The figure for `CCOc1ncccc1-c1ccc(C2(C(=O)N[C@@H]3CCN(C)C3)CCN(c3ccc(C(F)(F)F)cc3OC)CC2)cc1` [Compound 1-159, 4-[4-(2-ethoxypyridin-3-yl)phenyl]-1-[2-methoxy-4-(trifluoromethyl)phenyl]-N-[(3R)-1-methylpyrrolidin-3-yl]piperidine-4-carboxamide] is 7.00 to 8.00; for `CCOc1c(F)cccc1-c1ccc(C2(C(=O)N[C@@H]3CCN(C)C3)CCN(c3ccc(C(F)(F)F)cc3C#N)CC2)cn1` [Compound 1-72, 1-[2-cyano-4-(trifluoromethyl)phenyl]-4-[6-(2-ethoxy-3-fluorophenyl)pyridin-3-yl]-N-[(3R)-1-methylpyrrolidin-3-yl]piperidine-4-carboxamide] it is > 8.00.
The figure for `CNCCNC(=O)C1(c2cnc(-c3ccccc3OC)c(F)c2)CCN(c2ccc(C(F)(F)F)cc2F)CC1` [Compound 1-293, 1-[2-fluoro-4-(trifluoromethyl)phenyl]-4-[5-fluoro-6-(2-methoxyphenyl)pyridin-3-yl]-N-[2-(methylamino)ethyl]piperidine-4-carboxamide] is > 8.00; for `CN1CC[C@H](C(=O)NC2(c3ccc(-c4cccn4C)nc3)CCN(c3ccc(C(F)(F)F)cc3C#N)CC2)C1` [Compound 2-46, (3S)—N-{1-[2-cyano-4-(trifluoromethyl)phenyl]-4-[6-(1-methyl-1H-pyrrol-2-yl)pyridin-3-yl]piperidin-4-yl}-1-methylpyrrolidine-3-carboxamide] it is > 8.00.
